Measured values published in patent EP0536177B1, “THROMBIN INHIBITORS BASED ON THE AMINO ACID SEQUENCE OF HIRUDIN” (MAJESTY (HER) IN RIGHT OF CANADA as represented by THE …, priority 1990, dated 1991).
Where no end group is shown, it is not given here.

Key:
[1] = biological target: T1, human α-thrombin (Homo sapiens, UniProt P00734); experiment: Amidolytic (fluorogenic) assay of thrombin activity, hydrolysis of Tosyl-Gly-Pro-Arg-AMC; format: biochemical; details: mean of three determinations ± SEM, ni: not inhibited
T1 construct: the enzyme (human or bovine α-thrombin 0.4 nM)
Protocol: Thrombin-catalyzed hydrolysis of Tos-Gly-Pro-Arg-pNA was monitored at 405 nm on a Varian Cary 2000 double beam spectrophotometer using substrate concentrations of 2.5, 3.5, 5 and 10 µM in a final volume of 1mL. The hydrolytic reactions were performed at 25°C in 0.1 M Tris-HCl buffer, pH 7.8, containing 0.1 M NaCl and 0.1% PEG 6000. The reactions were initiated by addition of the substrate dissolved in 0.1 M Tris-HCl buffer, pH 7.8 to a preincubated solution of enzyme (0.4 or 0.04 nM) and variable concentrations of inhibitor dissolved in the same buffer. Initial velocities were recorded and Ki values were determined graphically by weighted linear regression of Dixon plots in the case of competitive inhibition, or by the method of Baici (Baici, 1981) for hyperbolic inhibition. Fluorogenic assays were conducted using the same conditions and instrument as above operating in the fluorescence mode in the Ratio (λex=383 nm, λem=455 nm). Fluorescence intensities were calibrated with 7-amino-4-methyl coumarin solution of known concentration. The specificity of the synthetic peptides of the present invention for human α-thrombin may also be determined by comparing their relative inhibitory activities towards both human α-thrombin and bovine α-thrombin and trypsin by comparing K1 values obtained in the amidolytic assay of thrombin activity.

[2] = biological target: T2, bovine α-thrombin (Bos taurus, UniProt P00735); experiment: as above; format: biochemical; details: mean of three determinations ± SEM, ni: not inhibited
T2 construct: the enzyme (human or bovine α-thrombin 0.4 nM)
Protocol: The hydrolytic reactions were performed at 25°C in 0.1 M Tris-HCl buffer, pH 7.8, containing 0.1 M NaCl and 0.1% PEG 6000. The reactions were initiated by addition of the substrate dissolved in 0.1 M Tris-HCl buffer, pH 7.8 to a preincubated solution of enzyme (0.4 or 0.04 nM) and variable concentrations of inhibitor dissolved in the same buffer. […] Fluorescence intensities were calibrated with 7-amino-4-methyl coumarin solution of known concentration.

[3] = Stability of polypeptides in plasma against proteolysis; format: in vitro ADME; details: incubation at 37°C in reconstituted normal human plasma with thromboplastin and calcium chloride, pH 7.8 (Figure 3)
Protocol: The peptides of this invention were evaluated for in vitro plasma stability against proteolysis.
600 µg of peptide was mixed with 250 µl of reconstituted normal human plasma, 250 µl of thromboplastin, 600 µg of calcium chloride and 50 mM NaHPO4 buffer ph 7.8 to a final volume of 900 µl.
The mixture was incubated at 37°C and 100 µl aliquots were removed at designated time intervals. 20 µl of 10% trichloroacetic acid was added to individual aliquot and centrifuged at 12 X K for 10 minutes. The supernatant was injected on a C18 analytical column and chromatographed by standard elution procedure (i.e. at 60% 0.1% TFA/H2O to 0.1 TFA in CH3CN).

[4] = system: rats; experiment: Antithrombotic activity in the arteriovenous shunt model; format: in vivo, rat; details: dose which causes a prolongation of the time until occlusion of the shunt by 15 min, 5 min after intravenous administration
Protocol: The rat anaesthetized with urethane is fixed in supine position on a temperature-controlled heating plate. The right carotid artery and the left jugular vein are catheterized with short polyethylene catheters (Portex, PE 50). The catheters are filled with physiological saline solution and clamped. The two ends of the catheters are connected with a 2-cm glass capillary (internal diameter 1.0 mm) acting as a thrombogenic surface, 5 min after intravenous administration of the test substance or its solvent (control) the clamps occluding the arteriovenous shunt are opened. The blood flowing through the shunt leads to a rapid rise in temperature of the glass capillary from room temperature to body temperature. The temperature of the capillary serves as an indicator for the patency of the shunt. The temperature is measured by means of a NiCrNi-thermo-couple.
Antithrombotic effect of P79 compared to recombinant hirudin in the arteriovenous shunt model in rats 5 min. after intravenous administration (n - number of animals used. Results are shown in Table II below. TABLE II

TPKPQSHNDGD [P51, hirudin^45-55]
Ki [1]: 0.11 ± 0.003 µM
Ki [2]: 0.72 ± 0.13 µM

[D-Phe^45,Arg^47,ψ(COCH2)CH2CH2CO^47]hirudin^45-65 [P79]
proteolysis [3]: minimal or no proteolysis
ED15 [4]: 0.42 mg/kg
